According to ChEMBL document CHEMBL3232872, “Cytotoxic constituents from Lobaria scrobiculata and a comparison of two bioassays for their evaluation” (J Nat Prod, 2014):
pIC50: −log10 of the molar value. The source made the active and inactive calls. The rule behind the calls is not given here.

Key:
HL-60 [1] = experiment: Cytotoxicity against human HL60 cells after 24 hrs by WST-1 assay; type: functional, cell-based; details: HL-60, 24 h
HL-60 [2] = experiment: Cytotoxicity against human HL60 cells after 48 hrs by WST-1 assay; type: functional, cell-based; details: HL-60, 48 h
HeLa [3] = experiment: Cytotoxicity against human HeLa cells after 24 hrs by WST-1 assay; type: functional, cell-based
HeLa [4] = experiment: Cytotoxicity against human HeLa cells after 48 hrs by WST-1 assay; type: functional, cell-based
Vero [5] = experiment: Cytotoxicity against African green monkey Vero cells after 24 hrs by Alamar Blue assay; type: cell-based; details: Chlorocebus sabaeus
Vero [6] = experiment: Cytotoxicity against African green monkey Vero cells after 48 hrs by Alamar Blue assay; type: cell-based; details: Chlorocebus sabaeus
HL-60 [7] = experiment: Cytotoxicity against human HL60 cells assessed as metabolic activity at 50 ug/mL after 24 hrs by WST-1 assay; type: functional, cell-based
HL-60 [8] = experiment: Cytotoxicity against human HL60 cells assessed as decrease in cell viability at 50 ug/mL after 24 hrs by trypan blue assay; type: functional, cell-based
[9] = Chemical stability of the compound in methanol measured immediately post compound addition by LC-MS analysis; type: physicochemical; details: read-out: Stability
[10] = Chemical stability of the compound in methanol measured at 24 hrs by LC-MS analysis; type: physicochemical; details: read-out: Stability
[11] = Chemical stability of the compound in methanol measured at 48 hrs by LC-MS analysis; type: physicochemical; details: read-out: Stability
[12] = Chemical stability of the compound in methanol measured at 72 hrs by LC-MS analysis; type: physicochemical; details: read-out: Stability
[13] = Drug degradation in methanol assessed as 2,3,4 trihydroxy-6-propylbenzoic acid methyl ester formation after 72 hrs by LC-MS analysis; type: physicochemical
HL-60 [14] = experiment: Cytotoxicity against human HL60 cells assessed as metabolic activity at 10 ug/mL measured over 72 hrs by WST-1 assay; type: functional, cell-based
HL-60 [15] = experiment: Cytotoxicity against human HL60 cells assessed as decrease in cell viability at 10 ug/mL measured over 72 hrs by trypan blue assay; type: functional, cell-based
[16] = Drug degradation in methanol assessed as divaricatinic acid methyl ester formation after 72 hrs by LC-MS analysis; type: physicochemical
HL-60 [17] = experiment: Cytotoxicity against human HL60 cells after 72 hrs; type: functional, cell-based; details: HL-60, 72 h

Row | SMILES | pIC50 (HL-60 [1]) | pIC50 (HL-60 [2]) | pIC50 (HeLa [3]) | pIC50 (HeLa [4]) | pIC50 (Vero [5]) | pIC50 (Vero [6]) | Activity (HL-60 [7]) | Activity (HL-60 [8]) | remaining at 0 h [9] | remaining at 24 h [10] | remaining at 48 h [11] | remaining at 72 h [12] | Stability [13] | Activity (HL-60 [14]) | Activity (HL-60 [15]) | Stability [16] | pIC50 (HL-60 [17])
1 | COc1cc(C)c2c(c1C=O)Oc1c(c(C)c(O)c3c1C(O)OC3=O)OC2=O (centres undefined) [STICTIC ACID] | < 5.00 | < 5.00 | < 5.00 | < 5.00 | < 3.82 | < 3.82 | inactive | Active | 89.7% | 90.1% | 91.8% | 91.8% |  |  |  |  | 
2 | CCCc1cc(O)c(O)c(O)c1C(=O)OC | < 5.00 | < 5.00 | < 5.00 | < 5.00 | < 3.82 | < 3.82 |  |  | 97.8% | 95% | 94.6% | 94.8% |  |  |  |  | 
3 | COc1cc(C)c2c(c1C=O)Oc1c(C=O)c(C(=O)O)c(O)c(C)c1OC2=O | < 5.00 | < 5.00 | < 5.00 | < 5.00 | < 3.82 | < 3.82 | inactive | Active | 94.1% | 88.5% | 89.6% | 89.5% |  |  |  |  | 
4 | CCCc1cc(OC)cc(O)c1C(=O)Oc1c(O)cc(CCC)c(C(=O)OC)c1O | < 5.00 | 5.12 | < 5.00 | < 5.00 | < 3.82 | < 3.82 |  |  | 99.8% | 63.8% | 35.3% | 22.1% | Unstable | Active | Active | Unstable | 
5 | CC(=O)C1=C(O)C=C2Oc3c(C(C)=O)c(O)c(C)c(O)c3[C@@]2(C)C1=O [(+)-USNIC ACID] | 5.27 | 5.77 | < 5.00 | < 5.00 | < 3.82 | < 3.82 |  |  | 99.9% | 99.9% | 99.9% | 99.9% |  |  |  |  | 4.31
6 | CCCc1cc(O)cc(O)c1C(=O)OC | < 5.00 | < 5.00 | < 5.00 | < 5.00 | < 3.82 | < 3.82 |  |  | 99.8% | 99.9% | 99.9% | 99.9% |  |  |  |  | 
